Columns and labels:
panel of 442 kinases [1] = molecular target: T1, panel of 442 kinases (Homo sapiens, UniProt P57078); format: binding; design: KINOMEscan: ABL1(F317L)-phosphorylated / KINOMEscan: ABL1(H396P)-nonphosphorylated / KINOMEscan: ABL1(H396P)-phosphorylated / KINOMEscan: ABL1(M351T)-phosphorylated / KINOMEscan: ABL1(T315I)-phosphorylated / KINOMEscan: ABL1-nonphosphorylated / KINOMEscan: ABL1-phosphorylated / KINOMEscan: ACVR2A / KINOMEscan: ACVR2B / KINOMEscan: ADCK3 / KINOMEscan: ADCK4 / KINOMEscan: AKT1 / KINOMEscan: AKT3 / KINOMEscan: ALK / KINOMEscan: ARK5 / KINOMEscan: AURKA / KINOMEscan: AURKC / KINOMEscan: BIKE / KINOMEscan: BMPR1A / KINOMEscan: BMPR1B / KINOMEscan: BMX / KINOMEscan: BRK / KINOMEscan: BRSK1 / KINOMEscan: BRSK2 / KINOMEscan: CAMK1 / KINOMEscan: CAMK1D / KINOMEscan: CAMK1G / KINOMEscan: CAMK2A / KINOMEscan: CAMK2B / KINOMEscan: AAK1 / KINOMEscan: CAMK2D / KINOMEscan: CAMK2G / KINOMEscan: ABL1(F317I)-nonphosphorylated / KINOMEscan: ABL1(F317I)-phosphorylated / KINOMEscan: ABL1(F317L)-nonphosphorylated: unit: % Ctrl; conditions: Compound Concentration 10 µM
T1 construct: purchased KINOMEscan
T1 sequence (P57078 1-832): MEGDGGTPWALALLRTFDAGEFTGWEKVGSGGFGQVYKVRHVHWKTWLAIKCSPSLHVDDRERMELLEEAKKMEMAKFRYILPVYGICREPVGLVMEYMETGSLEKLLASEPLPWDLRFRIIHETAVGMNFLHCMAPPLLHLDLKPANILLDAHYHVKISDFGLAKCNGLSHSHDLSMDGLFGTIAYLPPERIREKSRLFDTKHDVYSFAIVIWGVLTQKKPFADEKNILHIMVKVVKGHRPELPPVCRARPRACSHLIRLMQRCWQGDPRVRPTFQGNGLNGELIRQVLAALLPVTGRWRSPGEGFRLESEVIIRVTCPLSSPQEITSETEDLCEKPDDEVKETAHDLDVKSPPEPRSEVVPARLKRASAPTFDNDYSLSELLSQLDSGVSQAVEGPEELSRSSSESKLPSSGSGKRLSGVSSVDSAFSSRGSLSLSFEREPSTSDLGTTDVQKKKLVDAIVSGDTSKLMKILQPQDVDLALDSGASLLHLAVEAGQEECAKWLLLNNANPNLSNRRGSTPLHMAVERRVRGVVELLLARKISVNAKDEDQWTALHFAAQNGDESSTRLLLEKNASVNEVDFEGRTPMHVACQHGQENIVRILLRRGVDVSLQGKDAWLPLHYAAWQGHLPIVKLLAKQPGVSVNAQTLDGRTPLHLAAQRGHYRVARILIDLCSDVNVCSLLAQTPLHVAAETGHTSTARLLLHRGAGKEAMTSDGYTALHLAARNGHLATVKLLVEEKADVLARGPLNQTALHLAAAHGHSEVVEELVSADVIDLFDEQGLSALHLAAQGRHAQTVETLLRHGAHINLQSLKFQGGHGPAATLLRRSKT
From the text: (§1) We assessed the selectivity of members of this scaffold using the KINOMEscan methodology across a near comprehensive panel of 442 kinases [[18,27]].

panel of 442 kinases [2] = molecular target: T2, panel of 442 kinases (Homo sapiens, UniProt Q8IWQ3); format: binding; design: KINOMEscan: ABL1(F317L)-phosphorylated / KINOMEscan: ABL1(H396P)-nonphosphorylated / KINOMEscan: ABL1(H396P)-phosphorylated / KINOMEscan: ABL1(M351T)-phosphorylated / KINOMEscan: ABL1(T315I)-phosphorylated / KINOMEscan: ABL1-nonphosphorylated / KINOMEscan: ABL1-phosphorylated / KINOMEscan: ACVR2A / KINOMEscan: ACVR2B / KINOMEscan: ADCK3 / KINOMEscan: ADCK4 / KINOMEscan: AKT1 / KINOMEscan: AKT3 / KINOMEscan: ALK / KINOMEscan: ARK5 / KINOMEscan: AURKA / KINOMEscan: AURKC / KINOMEscan: BIKE / KINOMEscan: BMPR1A / KINOMEscan: BMPR1B / KINOMEscan: BMX / KINOMEscan: BRK / KINOMEscan: BRSK1 / KINOMEscan: BRSK2 / KINOMEscan: CAMK1 / KINOMEscan: CAMK1D / KINOMEscan: CAMK1G / KINOMEscan: CAMK2A / KINOMEscan: CAMK2B / KINOMEscan: AAK1 / KINOMEscan: CAMK2D / KINOMEscan: CAMK2G / KINOMEscan: ABL1(F317I)-nonphosphorylated / KINOMEscan: ABL1(F317I)-phosphorylated / KINOMEscan: ABL1(F317L)-nonphosphorylated: unit: % Ctrl; conditions: Compound Concentration 10 µM
T2 construct: purchased KINOMEscan
T2 sequence (Q8IWQ3 1-736): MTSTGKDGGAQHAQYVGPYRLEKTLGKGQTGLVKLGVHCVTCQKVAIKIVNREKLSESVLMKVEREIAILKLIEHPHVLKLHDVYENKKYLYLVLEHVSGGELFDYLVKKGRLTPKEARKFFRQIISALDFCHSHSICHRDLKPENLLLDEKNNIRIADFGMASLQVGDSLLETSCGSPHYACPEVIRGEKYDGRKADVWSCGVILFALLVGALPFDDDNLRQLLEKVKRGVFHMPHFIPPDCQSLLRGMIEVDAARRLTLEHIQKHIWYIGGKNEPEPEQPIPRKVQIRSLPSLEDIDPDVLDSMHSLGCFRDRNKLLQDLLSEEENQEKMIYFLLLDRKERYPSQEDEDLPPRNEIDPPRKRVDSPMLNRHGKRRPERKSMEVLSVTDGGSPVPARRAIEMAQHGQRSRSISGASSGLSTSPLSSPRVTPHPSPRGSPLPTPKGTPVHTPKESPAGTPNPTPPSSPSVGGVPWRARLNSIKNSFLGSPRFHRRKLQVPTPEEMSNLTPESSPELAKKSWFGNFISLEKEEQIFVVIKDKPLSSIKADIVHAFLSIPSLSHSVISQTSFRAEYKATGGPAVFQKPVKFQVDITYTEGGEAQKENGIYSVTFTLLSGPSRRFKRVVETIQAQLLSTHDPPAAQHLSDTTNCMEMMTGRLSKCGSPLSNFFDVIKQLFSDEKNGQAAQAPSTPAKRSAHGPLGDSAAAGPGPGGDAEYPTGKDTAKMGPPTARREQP
From the text: as §1

Compound	KINOMEscan: RIPK4 (panel of 442 kinases [1])	KINOMEscan: BRSK2 (panel of 442 kinases [2])
COc1cc(C(=O)N2CCC(N3CCN(C)CC3)CC2)ccc1Nc1ncc2c(n1)N(C)c1ccccc1C(=O)N2C [15 (LRRK2-IN-1)]	74	64
CCOc1cc(C(=O)N2CCC(N3CCN(C)CC3)CC2)ccc1Nc1ncc2c(n1)N(C1CCCC1)c1ccccc1C(=O)N2C [Compound 26]	100	92
COc1cc(C(=O)N2CCC(N3CCN(C)CC3)CC2)ccc1Nc1ncc2c(n1)N1CCc3cccc(c31)C(=O)N2C [Compound 24]	–	81
COc1cc(C(=O)N2CCC(N3CCN(C)CC3)CC2)ccc1Nc1ncc2c(n1)N(C1CCCC1)c1ccccc1C(=O)N2C [Compound 25, 11-cyclopentyl-2-((2-methoxy-4-(4-(4-methylpiperazin-1-yl)piperidine-1-carbonyl)phenyl)amino)-5-methyl-5H-benzo[e]pyrimido[5,4-b][1,4]diazepin-6(11H)-one]	100	80
